Data as given in ChEMBL document CHEMBL1221225, “A small molecule that directs differentiation of human ESCs into the pancreatic lineage” (Nat Chem Biol, 2009).
pEC50: −log10 of the molar value. Activity calls are given as the source filed them. No cut-off for these calls is given here.

Assays:
[1] = Induction of human HUES9 cell differentiation into pancreatic lineage assessed as increase in Pdx1-expression in cells pregrown with medium containing Wnt, activin, FGF10, KAAD-cyclopamine and retinoic acid at 1 uM after 4 days by Opera high content screening system; assay type: functional
[2] = Induction of human HUES9 cell differentiation into pancreatic lineage assessed as increase in Pdx1-expression in cells pregrown with medium containing Wnt, activin, FGF10, KAAD-cyclopamine and retinoic acid at 1 uM after 1 day by Opera high content screening system; assay type: functional
[3] = Induction of human HUES9 cell differentiation into pancreatic lineage assessed as increase in Pdx1-expression in cells pregrown with medium containing Wnt, activin, FGF10, KAAD-cyclopamine and retinoic acid after 1 day by Opera high content screening system; assay type: functional, cell-based; settings: HUES9, 24 h
[4] = Cytotoxicity against human HUES9 cells at 300 nM; assay type: cell-based; settings: hues9, 0.3 µM
[5] = test system: HUES2; experiment: Induction of human HUES2 cell differentiation into pancreatic progenitor cells assessed as increase in Pdx1-expression in cells pregrown with medium containing Wnt, activin, FGF10, KAAD-cyclopamine and retinoic acid at 300 nM after 4 days by Opera high content screening system relative to control; assay type: functional, cell-based
[6] = species: Homo sapiens; experiment: Induction of human HUES4 cell differentiation into pancreatic progenitor cells assessed as increase in Pdx1-expression in cells pregrown with medium containing Wnt, activin, FGF10, KAAD-cyclopamine and retinoic acid at 300 nM after 4 days by Opera high content screening system relative to control; assay type: functional, cell-based
[7] = Induction of human HUES8 cell differentiation into pancreatic progenitor cell assessed as HNF6 expression in cells pregrown in medium containing Wnt, activin, FGF10, KAAD-cyclopamine and retinoic acid at 300 nM after 4 days by immunocytochemistry relative to control; assay type: functional
[8] = Induction of human HUES8 cell differentiation into pancreatic progenitor cell assessed as NKX6.1 expression in cells pregrown in medium containing Wnt, activin, FGF10, KAAD-cyclopamine and retinoic acid at 300 nM after 4 days by immunocytochemistry relative to control; assay type: functional
[9] = test system: HUES8; experiment: Induction of human HUES8 cell differentiation into pancreatic progenitor cell assessed as increase in HNF6 mRNA expression at 300 nM after 4 days by RT-PCR analysis cells pregrown in medium containing Wnt, activin, FGF10, KAAD-cyclopamine and retinoic acid; assay type: functional, cell-based
[10] = test system: HUES8; experiment: Induction of human HUES8 cell differentiation into pancreatic progenitor cell assessed as increase in PROX1 mRNA expression at 300 nM after 4 days by RT-PCR analysis cells pregrown in medium containing Wnt, activin, FGF10, KAAD-cyclopamine and retinoic acid; assay type: functional, cell-based
[11] = test system: HUES8; experiment: Induction of human HUES8 cell differentiation into endocrine progenitor cell assessed as increase in NKX2.2 mRNA expression at 300 nM after 4 days by RT-PCR analysis cells pregrown in medium containing Wnt, activin, FGF10, KAAD-cyclopamine and retinoic acid; assay type: functional, cell-based
[12] = test system: HUES8; experiment: Induction of human HUES8 cell differentiation into pancreatic progenitor cell assessed as increase in NKX6.1 mRNA expression at 300 nM after 4 days by RT-PCR analysis cells pregrown in medium containing Wnt, activin, FGF10, KAAD-cyclopamine and retinoic acid; assay type: functional, cell-based
[13] = Induction of insulin production in differentiated human HUES8 cells at 300 nM after 4 days by immunocytochemistry (reference value: 0%); assay type: functional
[14] = species: Homo sapiens; experiment: Induction of C-peptide expression in human HUES8 insulin-producing cells at 300 nM after 4 days by immunocytochemistry relative to control; assay type: functional
[15] = Effect on glucagon expression in human HUES8 insulin-producing cells at 300 nM after 4 days by immunocytochemistry (reference value: 75.2 +/- 9.1%); assay type: functional
[16] = species: Homo sapiens; experiment: Induction of C-peptide release in human HUES8 insulin-producing cell at 300 nM after 4 days by ELISA; assay type: functional
[17] = Induction of human HUES8 differentiation into pancreatic lineage assessed as increase in amylase/CPA double-positive exocrine cells at 300 nM after 4 days by RT-PCR (reference value: 1.6+/-0.2%); assay type: functional
[18] = Induction of human HUES8 differentiation into pancreatic lineage assessed as increase in amylase/CPA double-positive exocrine cells at 300 nM after 4 days by RT-PCR (Rvb (DMSO) = 0.2+/-0.1%); assay type: functional
[19] = Induction of human HUES8 differentiation into pancreatic lineage assessed as increase in DBA-positive exocrine cells at 300 nM after 4 days by RT-PCR (Rvb (DMSO) = 0%); assay type: functional
[20] = species: Homo sapiens; experiment: Induction of human HUES8 differentiation into pancreatic lineage assessed as increase in somatostatin-producing endocrine cells at 300 nM after 4 days by immunostaining; assay type: functional
[21] = species: Mus musculus; experiment: Induction of mouse AV3 Pdx1-expressing cell differentiation assessed as increase in Nkx6.1 expression at 300 nM after 6 days by immunohistochemistry pretreated with 1000 ng/ml recombinant mouse Nodal for 5 days; assay type: functional
[22] = test system: AV3; experiment: Induction of mouse AV3 cell differentiation into pancreatic lineage assessed as increase in cdcp1 mRNA expression at 300 nM after 6 days by RT-PCR analysis pretreated with 1000 ng/ml recombinant mouse Nodal for 5 days; assay type: functional, cell-based
[23] = test system: AV3; experiment: Induction of mouse AV3 cell differentiation into pancreatic lineage assessed as increase in ptf1a mRNA expression at 300 nM after 6 days by RT-PCR analysis pretreated with 1000 ng/ml recombinant mouse Nodal for 5 days; assay type: functional, cell-based
[24] = test system: AV3; experiment: Induction of mouse AV3 cell differentiation into pancreatic lineage assessed as increase in Hnf6 mRNA expression at 300 nM after 6 days by RT-PCR analysis pretreated with 1000 ng/ml recombinant mouse Nodal for 5 days; assay type: functional, cell-based
[25] = test system: AV3; experiment: Induction of mouse AV3 cell differentiation into pancreatic lineage assessed as increase in Foxa2 mRNA expression at 300 nM after 6 days by RT-PCR analysis pretreated with 1000 ng/ml recombinant mouse Nodal for 5 days; assay type: functional, cell-based
[26] = species: Homo sapiens; experiment: Induction of human HUES8 differentiation into definitive endoderm assessed as expression of SOX17 at 300 nM after 3 days by immunocytochemistry in presence of Wnt3a and activin A; assay type: functional
[27] = test system: Intestine; experiment: Induction of CDX2 expression in CD1 nude mouse intestine at 300 nM after 4 days by fluorescent confocal microscopy; assay type: functional, tissue-based
[28] = test system: Intestine; experiment: Induction of CES2 expression in CD1 nude mouse intestine at 300 nM after 4 days by fluorescent confocal microscopy; assay type: functional, tissue-based
[29] = test system: Liver; experiment: Induction of AFP expression in CD1 nude mouse liver at 300 nM after 4 days by fluorescent confocal microscopy; assay type: functional, tissue-based
[30] = test system: Liver; experiment: Induction of Albumin expression in CD1 nude mouse liver at 300 nM after 4 days by fluorescent confocal microscopy; assay type: functional, tissue-based
[31] = test system: Lung; experiment: Induction of SOX2 expression in CD1 nude mouse lung at 300 nM after 4 days by fluorescent confocal microscopy; assay type: functional, tissue-based
[32] = species: Mus musculus; experiment: Induction of MYOD expression in CD1 nude mouse mesoderm at 300 nM after 4 days by fluorescent confocal microscopy; assay type: functional

## CC(C)[C@H]1C(=O)N[C@H](CO)Cc2c[nH]c3cccc(c23)N1C [INDOLACTUM]
[1]
  Activity: 10.9%
[2]
  Activity: 5.3%
[3]
  pEC50: 6.85
[4]
  Activity: Non-toxic
[5]
  Activity: Active
[6]
  Activity: Active
[7]
  Activity: 91.3%
[8]
  Activity: 83.5%
[9]
  Activity: Active
[10]
  Activity: Active
[11]
  Activity: Active
[12]
  Activity: Active
[13]
  Activity: 0.5%
[14]
  Activity: Active
[15]
  Activity: 19.5%
[16]
  Activity: Active
[17]
  Activity: 22.7%
[18]
  Activity: 22.7%
[19]
  Activity: 3.6%
[20]
  Activity: Active
[21]
  Activity: Active
[22]
  Activity: Active
[23]
  Activity: Active
[24]
  Activity: Active
[25]
  Activity: Active
[26]
  Activity: inactive
[27]
  Activity: inactive
[28]
  Activity: inactive
[29]
  Activity: inactive
[30]
  Activity: inactive
[31]
  Activity: inactive
[32]
  Activity: inactive
